Test results from patent publication US10456434B2, “Extracts obtained from cell line cultures from plants belonging to the Oleaceae family (e.g. Syringa vulgaris), their preparation and use” (CRODA ITALIANA S. P. A., priority 2005, dated 2019).
In brackets after ≈: the same amount, converted by molar mass.

What was measured:
[1] = tested on: whole blood; assay: Whole blood luminol dependent chemiluminescence; format: cell-based; details: 0.5 h; fresh human blood, 30 minutes, 37° C.; read-out: Whole blood chemiluminescence (IC 50 mg/ml)
Protocol: (§1) Anti-inflammatory activity has been assessed by measuring luminol dependent chemiluminescence generated by free radicals released from whole blood and from white blood cells. The assay has been performed using the following protocol: 10 μl of fresh human blood is mixed with 0.980 ml of Hanks saline solution containing 5×10^−5 M luminol and the test sample (at various concentrations). The chemiluminescent response is recorded continuously for 30 minutes at a temperature of 37° C. The results are expressed as IC50 (mg/ml), i.e. as the minimum sample, concentration inhibiting chemiluminescence by 50% with respect to the control. To isolate white blood cells (WBC) from whole blood one proceeds in the following manner: 1 ml of fresh blood is layered onto a Hipaque gradient (p=1.119) and centrifuged at 250×g for 60 minutes at room temperature. Following centrifugation, the pellet containing the white blood cells is washed twice, using a large volume of cold Hanks saline solution. Finally, the washed WBCs are resuspended in 01 ml di HBSS containing foetal calf serum. 10^6 WBC are added to a chemiluminometer cuvette. 10 μl of PMA (final concentration equal to 10 nM) are added to induce the formation of free radicals. The chemiluminescent response is recorded continuously for 30 minutes at a temperature of 37° C. […]

[2] = tested on: white blood cells; assay: PMA-stimulated white blood cell chemiluminescence; format: cell-based; details: Homo sapiens; 10^6 WBC, PMA 10 nM; read-out: White blood cell chemiluminescence (IC50 mg/ml)
Protocol: as §1

[3] = tested on: platelets; assay: ADP induced platelet aggregation in platelet rich plasma; format: cell-based, rabbit; details: 1.0 mg/ml
Protocol: Platelet enriched rabbit plasma has been used to assess the platelet anti-aggregating and disaggregating properties of Syringa vulgaris Extract 1, verbascoside and isoverbascoside. Platelet rich plasma has been obtained from rabbit venous blood by mixing it with a 3.8% sodium citrate solution (9:1 v/v). The solution has then been centrifuged at 460×g for 20 minutes. The supernatant has been collected and immediately used for the aggregation assays. Platelet aggregation has been recorded using a Chronolog “Ionised calcium platelet aggregometer” (Chrono-log Co., USA). All measurements have been performed at 37° C. with continuous stirring. […] Then 10 μl of a solution of ADP (final concentration—10 μm) has been added and the luminous transmittance continuously recorded. The results are expressed as the DÒ/DÒÊ ratio, where DÒÊ and DÒ are the luminous transmittance values, in the absence and presence of extract respectively. Platelet disaggregation (the disappearance of pre formed aggregates) has been determined using the same luminous transmittance curve 10 minutes following the addition of ADP. The results are expressed as the DR/DRk ratio, where DRk and DR, are the luminous transmittance in the absence and presence of extract. […]

[4] = tested on: tyrosinase; assay: Tyrosinase inhibition, oxidation of L-tyrosine to L-DOPA; format: biochemical; details: 250 μg/ml
Text: The enzyme tyrosinase catalyses the reactions leading to melanin biosynthesis from tyrosine. […] Substances inhibiting tyrosinase activity produce clearing/bleaching effect on the skin, since they block melanin synthesis. The method used to determine the inhibition of tyrosinase activity in the oxidation reaction of L-tyrosine to L-DOPA is that described in Kim et al. […] Biol. Pharm. Bull. 28(2), 323-327, 2005). The method applied for determination of the inhibition of tyrosinase activity in the conversion of L-DOPA to DOPAquinone is that described in Masamoto et al. (Mushroom tyrosinase inhibitory activity of esculetin isolated from seeds of Euphorbia lathyris L. Biosci. Biotechnol. Biochem., 67(3), 631-634, 2003).

[5] = tested on: Malassezia furfur ST 8036; assay: Multiple dilution antimycotic assay, Malassezia furfur; format: cell-based; details: assayed at 0.625-5 mg/ml
Protocol: With the aim of identifying any potential antifungal activity in the Syringa vulgaris extracts, microbiological assays have been prepared, generally known as multiple dilution assays. Such assays have been performed using the following fungal strains: Trycophyton rubrum ATCC 28188 and Malassezia furfur ST 8036. Syringa vulgaris Extracts 1 and 2, verbascoside and isoverbascoside have been assayed at concentrations of […], 1.25 mg/ml, 2.5 mg/ml and 5 mg/ml. The fungal strains used for testing have been inoculated into culture-broth (in Tryptone soy broth medium, for Malassezia furfur the culture medium has been supplemented with 2 ml/100 ml of olive oil) containing Syringa vulgaris extracts 1 and 2, verbascoside and isoverbascoside at the concentrations described above. In parallel with these tests, culture broths containing the microbial strain alone have been prepared (controls). The culture-broths have, been incubated at 30° C. for a period of 28 days. Samples of the various culture-broths have been taken at 0, 7, 14, 21 and 28 days, with the aim of counting the number of CFU/ml in relation to the various fungal strains, by plating the cultures on solid medium. A certain number of serial dilutions have been prepared for each sample in order to determine the fungal load of each culture-broth. Each dilution has been assayed in triplicate on solid medium. […]

Row | Structure (SMILES) | IC50 [1] | IC50 [2] | Aggregation (% with respect to control) [3] | Test L-tyrosine-DOPA inhibitory activity (%) [4] | antimycotic activity towards Malassezia furfur (in words) [5]
1 | CC1OC(OC2C(O)C(COC(=O)C=Cc3ccc(O)c(O)c3)OC(OCCc3ccc(O)c(O)c3)C2O)C(O)C(O)C1O [Isoverbascoside, b-(3,4-dihydroxyphenyl)-ethyl-O-α-L-ramnopyranosyl(1″-3′)-b-D-(6′-O-caffeoil)glucopyranoside] | 1.3 mg/mL (≈ 2080 µM) | 0.25 mg/mL (≈ 400 µM) | 25 ± 6 % | 10.9% | activity comparable to Extract 1
2 | C[C@@H]1O[C@@H](O[C@@H]2[C@@H](O)[C@H](OCCc3ccc(O)c(O)c3)O[C@H](CO)[C@H]2OC(=O)/C=C/c2ccc(O)c(O)c2)[C@H](O)[C@H](O)[C@H]1O [Verbascoside, b-(3,4-dihydroxyphenyl)-ethyl-O-α-L-ramnopyranosyl (1″-3′)-b-D-(4′-O-caffeoil)-glucopyranoside] | 1.29 mg/mL (≈ 2070 µM) | 0.23 mg/mL (≈ 368 µM) | 24 ± 6 % | 19.6% | activity comparable to Extract 1
